Test results as given in patent US20100099673A1, “DECAHYDROQUINOLINE ANALOGS AS CB2 RECEPTOR MODULATORS, USEFUL IN THE TREATMENT OF PAIN, RESPIRATORY AND NON-RESPIRATORY DISEASES” (priority 2007, published 2010).
Read-outs that look alike come from different tables or passages of the source.

What was measured:
human CB1 = human CB1 (Homo sapiens, UniProt P21554); assay: Cyclic AMP assay (HTRF), CHO cells expressing human CB1; format: cell-based
Description: (§1) Chinese Hamster Ovary cells (CHO) expressing human CB1 or human CB2 (3.3×10^5 cells/ml) were preincubated for 15 min at room temperature with tested agonist and 3-isobutyl-1-methylxanthine (IBMX; 200 μM) in phosphate buffered saline containing 1 mg/ml BSA (assay buffer) followed by 30 min incubation with forskolin in a total volume of 10 μl. The optimal forskolin concentration for each cell line was established in a separate experiment and adjusted to stimulate 70% of maximal cAMP response. cAMP content was measured using an HTRF assay (CisBio) according to the manufacturer's two step protocol.
(§2) In this assay, compounds of the invention have an IP ranging from 1 nM to >17000 nM. The Examples below have an IP ranging from 1 nM to >17000 nM.

human CB2 = human CB2 (Homo sapiens, UniProt P34972); assay: Cyclic AMP assay (HTRF), CHO cells expressing human CB2; format: cell-based; details: for Emax: read-out: CB2 Emax
Chain of human CB2 (P34972 whole entry): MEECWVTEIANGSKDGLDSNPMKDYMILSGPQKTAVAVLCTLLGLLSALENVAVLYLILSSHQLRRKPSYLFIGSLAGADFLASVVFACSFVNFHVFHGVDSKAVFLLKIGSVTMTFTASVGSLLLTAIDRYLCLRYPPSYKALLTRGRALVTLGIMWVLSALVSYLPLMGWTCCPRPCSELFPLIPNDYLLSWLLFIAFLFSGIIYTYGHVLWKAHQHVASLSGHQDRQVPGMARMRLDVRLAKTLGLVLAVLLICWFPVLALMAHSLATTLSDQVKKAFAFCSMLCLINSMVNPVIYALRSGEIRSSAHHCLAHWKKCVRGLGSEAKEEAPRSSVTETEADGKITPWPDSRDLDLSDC
Description: as §1, §2

[1] = IP of agonist in forskolin-stimulated cAMP HTRF assay, CHO cells expressing human CB1, read-out: CB1 (HTRF)
[2] = IP of agonist in forskolin-stimulated cAMP HTRF assay, CHO cells expressing human CB2, read-out: CB2 (HTRF)
[3] = forskolin-stimulated cAMP HTRF assay, CHO cells expressing human CB2

Chain of human CB1 (P21554 whole entry): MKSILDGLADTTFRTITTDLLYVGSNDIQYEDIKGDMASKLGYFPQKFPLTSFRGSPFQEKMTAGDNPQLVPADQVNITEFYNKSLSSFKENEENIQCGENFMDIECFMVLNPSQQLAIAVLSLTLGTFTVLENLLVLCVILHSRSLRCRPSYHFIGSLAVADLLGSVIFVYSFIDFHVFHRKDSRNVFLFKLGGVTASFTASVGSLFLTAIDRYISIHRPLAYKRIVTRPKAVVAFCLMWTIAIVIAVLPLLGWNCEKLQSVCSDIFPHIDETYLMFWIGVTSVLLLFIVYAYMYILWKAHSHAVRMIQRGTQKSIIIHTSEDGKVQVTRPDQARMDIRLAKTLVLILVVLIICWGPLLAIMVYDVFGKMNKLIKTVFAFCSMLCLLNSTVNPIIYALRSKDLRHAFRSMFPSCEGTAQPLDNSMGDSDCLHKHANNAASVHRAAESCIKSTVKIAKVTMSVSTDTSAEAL

| Structure (SMILES) | EC50 (human CB1; [1]) | EC50 (human CB2; [2]) | Emax (human CB2; [3]) | EC50 (human CB1) | EC50 (human CB2) | Emax (human CB2; CHO) |
| --- | --- | --- | --- | --- | --- | --- |
| O=C(c1ccccc1)N1CCC(O)(c2cccnc2)[C@H]2CCCC[C@@H]21 (stereo in doubt) [Example 258, 1-benzoyl-4-pyridin-3-yldecahydroquinolin-4-ol] | – | 938 nM | 86% | – | – | – |
| O[C@]1(c2ccccc2)CCN(Cc2n[nH]c3ccccc23)[C@@H]2CCCC[C@@H]21 (stereo in doubt) [Example 274, 1-(1H-indazol-3-ylmethyl)-4-phenyldecahydroquinolin-4-ol] | – | – | – | > 17000 nM | 19 nM | 102% |
| Cn1cc(S(=O)(=O)N2CC[C@](O)(c3ccccc3)[C@H]3CCCC[C@H]32)c(C(F)(F)F)n1 (stereo in doubt) [Example 289, 1-{[1-methyl-3-(trifluoromethyl)-1h-pyrazol-4-yl]sulfonyl}-4-phenyldecahydroquinolin-4-ol] | > 17000 nM | 41 nM | 101% | – | – | – |
| O=C(c1ccccc1)N1CCC(O)(Cc2ccccc2)[C@H]2CCCC[C@@H]21 (stereo partly shown) [Example 260, 1-benozyl-4-benzyldecahydroquinolin-4-ol] | – | 90 nM | 93% | – | – | – |
| O=C(Nc1cccnc1)N1CC[C@](O)(c2ccccc2)[C@H]2CCCC[C@H]21 [Example 291, 4-hydroxy-4-phenyl-n-pyridin-3-yloctahydroquinoline-1(2H)-carboxamide] | > 17000 nM | 1100 nM | – | – | – | 76% |

Further compounds by falling EC50 (human CB2; [2]), results first:

| EC50 (human CB1; [1]) | EC50 (human CB2; [2]) | Emax (human CB2; [3]) | Structure (SMILES) | EC50 (human CB1) | EC50 (human CB2) | Emax (human CB2; CHO) |
| --- | --- | --- | --- | --- | --- | --- |
| > 17000 nM | 37 nM | 100% | O=C(c1ccon1)N1CC[C@](O)(c2ccccc2)[C@H]2CCCC[C@H]21 (single isomer, unassigned) [Example 131, 1-(isoxazol-3-ylcarbonyl)-4-phenyldecahydroquinolin-4-ol] | – | – | – |
| 6780 nM | 10 nM | 100% | O=C(c1cccnc1)N1CC[C@](O)(c2ccccc2)[C@H]2CCCC[C@H]21 (relative stereo) [Example 135, cis-4-phenyl-1-(pyridin-3-ylcarbonyl)decahydroquinolin-4-ol] | – | – | – |
| 10500 nM | 1.3 nM | 99% | CC(C)(O)c1ccnc(N2CC[C@](O)(c3ccccc3)[C@H]3CCCC[C@H]32)c1 (relative stereo) [Example 287, (cis)-1-[4-(1-hydroxy-1-methylethyl)pyridin-2-yl]-4-phenyldecahydroquinolin-4-ol] | – | – | – |
